Experiments:
Type in all cases: in vivo
[1] = tested on: greenhouse red spider mite (Tetranychus urticae); assay: Tetranychus urticae test, soil application in rock wool (eggplants); settings: 10 mg of ai/plant
Procedure: To produce a suitable solution, the product is mixed with water and diluted with water to the desired concentration. The desired amount of additive is added to the mixtures. Eggplants (Solanum melongena) are cultivated in rock wool. At the 4-leaf stage, the product solution in question is applied to the rock wool. The stated concentration refers to the amount of active compound per plant.
At the desired point in time, the plants are infested with a mixed population of the greenhouse red spider mite (Tetranychus urticae).
After the desired period of time, the effect in % is determined. 100% means that all spider mites have been killed; 0% means that none of the spider mites have been killed.

[2] = tested on: whiteflies (Bemisia tabaci); assay: Bemisia tabaci test on tomatoes, drench application in rock wool; settings: 5 mg of ai/plant; tomato plants in rock wool; days between application and infestation −11; mortality determined 25 days after infestation
Procedure: (§1) To produce a suitable solution, the product is mixed with water and diluted with water to the desired concentration. The desired amount of additive is added to the mixtures.
Tomato plants (Solanum lycopersicum) are cultivated in rock wool and infested with whiteflies (Bemisia tabaci). At the 2-leaf stage, the product solution in question is applied to the rock wool. The stated concentration refers to the amount of active compound per plant.
(§2) After the desired period of time, the effect in % is determined. 100% means that all the whiteflies have been killed; 0% means that none of the whiteflies have been killed.

[3] = tested on: whiteflies (Bemisia tabaci); assay: Bemisia tabaci test on cucumbers, drench application in rock wool; settings: 20 mg of ai/plant, days between application and infestation −11, mortality determined 18 days after infestation
Procedure: as §1
Cucumbers (Cucumis sativa) are cultivated in rock wool and infested with whiteflies (Bemisia tabaci). At the 2-leaf stage, the product solution in question is applied to the rock wool. The stated concentration refers to the amount of active compound per plant.
as §2

Cc1cc(C)c(C2=C(OC(=O)CC(C)(C)C)C3(CCCC3)OC2=O)c(C)c1 [spiromesifen (II-2), spiromesifen]
Mortality ([1]; days between application and infestation 14, mortality determined 14 days after infestation): 20%
Mortality ([1]; days between application and infestation −1, mortality determined 7 days after infestation): 30%
Mortality ([1]; days between application and infestation −1, mortality determined 14 days after infestation): 10%
Mortality [2]: 80%
Mortality [3]: 0%
